Among the test systems are OVCAR-4 ovarian; HCC-2998 colon; OVCAR-3 ovarian; KM12 colon; SW-620 colon; HOP-62 NSCLC; M14 melanoma; NCI-H23 lung; HCT-116 colon; ACHN renal.
Common to all, as to experiment: NCI-60 cell line screen, 48 h

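Exposure lasted 48 hours, with cells grown in 96-well plates and compounds tested at five concentrations. Here, GI50 denotes the concentration required for 50% inhibition of growth. TGI is the concentration that stops growth completely.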

In the case of `COc1ccc(S(=O)(=O)n2c3ccccc3n3ncc(-c4nnc(C)o4)c23)cc1`, the GI50 in the assay on OVCAR-4 ovarian is 12.7 µM; in the assay with HCC-2998 colon it was 1.38 µM; with OVCAR-3 ovarian, 0.342 µM; in the assay on KM12 colon, 0.465 µM; in the assay on SW-620 colon, 0.394 µM; in the assay on HOP-62 NSCLC, 0.566 µM. Moreover, the GI50 with M14 melanoma was 0.373 µM; in the assay with NCI-H23 lung, 0.786 µM; with HCT-116 colon it was 0.387 µM; with ACHN renal, 0.567 µM. For the same compound, the TGI with OVCAR-4 ovarian is greater than 100 µM; with HCC-2998 colon, 16.8 µM; in the assay with OVCAR-3 ovarian, 2.45 µM; with KM12 colon, 19.9 µM; in the assay with SW-620 colon it was greater than 100 µM; with HOP-62 NSCLC, greater than 85.5 µM. Also, the TGI in the assay on M14 melanoma was 18.7 µM; in the assay on NCI-H23 lung it was 75.8 µM; in the assay with HCT-116 colon, 24 µM; in the assay with ACHN renal it was greater than 100 µM.
As for `O=C(Nc1ccc(-c2ccnc(Nc3ccc(N4CCOCC4)cc3)n2)cc1)C1CCCN1` (stereo not given), the GI50 with OVCAR-4 ovarian was 12.2 µM; in the assay on HCC-2998 colon it was 11.3 µM; with OVCAR-3 ovarian, 9.43 µM; in the assay with KM12 colon, 7.49 µM; in the assay on SW-620 colon it was 6.14 µM; with HOP-62 NSCLC, 5.16 µM. The GI50 was 7.23 µM in the assay on M14 melanoma, 12.1 µM with NCI-H23 lung, 1.43 µM with HCT-116 colon and 4.27 µM in the assay on ACHN renal. Further, the TGI amounted to 43.1 µM with OVCAR-4 ovarian; 25 µM in the assay on HCC-2998 colon; 27.3 µM in the assay with OVCAR-3 ovarian; 27.3 µM in the assay with KM12 colon; 25.1 µM with SW-620 colon; 27.7 µM in the assay with HOP-62 NSCLC. Further, the TGI is 22.8 µM in the assay on M14 melanoma, 32.4 µM in the assay on NCI-H23 lung, 18.5 µM in the assay on HCT-116 colon and 25.2 µM in the assay on ACHN renal.
As to `CCCCN(CCCC)C(=O)C(=O)CC(=O)/C=C/c1ccccc1`, the TGI in the assay on OVCAR-4 ovarian, with HCC-2998 colon, in the assay on OVCAR-3 ovarian, with KM12 colon, with SW-620 colon and in the assay with HOP-62 NSCLC was greater than 100 µM each time. The TGI in the assay with M14 melanoma, with NCI-H23 lung, with HCT-116 colon and in the assay on ACHN renal was greater than 100 µM in each case.
For `CN(C)CCNc1c2c(c(NCCN(C)C)c3c(CO)c[nH]c13)C(=O)c1ccccc1C2=O`, the GI50 was 2.58 µM in the assay on OVCAR-4 ovarian; 1.43 µM with HCC-2998 colon; 3.91 µM with OVCAR-3 ovarian; 1.03 µM in the assay with KM12 colon; 1.87 µM in the assay with SW-620 colon; 1.02 µM with HOP-62 NSCLC. The GI50 in the assay with M14 melanoma was 2.04 µM; with NCI-H23 lung, 2.31 µM; in the assay on HCT-116 colon, 0.721 µM; in the assay with ACHN renal it was 1.92 µM. Besides, the TGI in the assay on OVCAR-4 ovarian was determined as 11.5 µM; in the assay on HCC-2998 colon it was 5.46 µM; with OVCAR-3 ovarian it was 25.1 µM; in the assay with KM12 colon, 5.73 µM; in the assay on SW-620 colon it was 7.57 µM; with HOP-62 NSCLC, 7.29 µM. Further, the TGI is 4.57 µM with M14 melanoma, greater than 21.9 µM in the assay on NCI-H23 lung, 10.9 µM in the assay with HCT-116 colon and 9.96 µM in the assay with ACHN renal.
Turning to `N[C@H](C(=O)O)[C@@H](Cl)CC(=O)O`, the TGI with OVCAR-4 ovarian, in the assay on HCC-2998 colon, with OVCAR-3 ovarian, with KM12 colon, in the assay on SW-620 colon and in the assay with HOP-62 NSCLC was greater than 100 µM each time. Also, the TGI in the assay with M14 melanoma, with NCI-H23 lung, with HCT-116 colon and in the assay with ACHN renal was greater than 100 µM in each case.
As for `COc1cc(C2(C)SCCCS2)c(I)c(OC)c1OC`, the TGI with OVCAR-4 ovarian, in the assay with HCC-2998 colon, in the assay on OVCAR-3 ovarian, in the assay with KM12 colon, with SW-620 colon and with HOP-62 NSCLC was greater than 100 µM throughout. Also, the TGI in the assay with M14 melanoma, in the assay on NCI-H23 lung, with HCT-116 colon and with ACHN renal was greater than 100 µM each time.
Take `CCOC(=O)NC(=O)c1cn(C2OC(CO)C(O)C2O)c(=O)[nH]c1=O` (stereo not given): the TGI in the assay on OVCAR-4 ovarian, in the assay on HCC-2998 colon, in the assay on OVCAR-3 ovarian, with KM12 colon, with SW-620 colon and in the assay on HOP-62 NSCLC was greater than 100 µM in each case. In addition, the TGI in the assay with M14 melanoma, in the assay on HCT-116 colon and in the assay on ACHN renal was greater than 100 µM in each case.
For `CCOC(=O)/C(C#N)=C(N)/C(=N\Nc1cccc(C(F)(F)F)c1)C(=O)OCC`, the TGI in the assay on OVCAR-4 ovarian, with HCC-2998 colon, in the assay with OVCAR-3 ovarian, in the assay with SW-620 colon, in the assay on HOP-62 NSCLC and in the assay with M14 melanoma was greater than 100 µM each time. The TGI in the assay on NCI-H23 lung, with HCT-116 colon and with ACHN renal was greater than 100 µM throughout.
Consider `Cc1cccc(O)c(=O)c1`, for which the TGI with OVCAR-4 ovarian, in the assay on HCC-2998 colon, with OVCAR-3 ovarian, with KM12 colon, in the assay on SW-620 colon and in the assay with HOP-62 NSCLC was greater than 100 µM throughout. Further, the TGI in the assay on M14 melanoma, in the assay with HCT-116 colon and in the assay on ACHN renal was greater than 100 µM throughout.
For the compound `COc1cc(/C=C/c2cc(/C=C/c3ccc(O)c(OC)c3)[nH]c(=O)n2)ccc1O`, the GI50 in the assay with OVCAR-4 ovarian is 2.46 µM; in the assay on HCC-2998 colon it was 3.55 µM; in the assay with OVCAR-3 ovarian it was 3.8 µM; in the assay with KM12 colon it was 3.44 µM; in the assay on SW-620 colon it was 3.17 µM; in the assay with HOP-62 NSCLC it was 4.11 µM. The GI50 with M14 melanoma was 3.12 µM; in the assay with HCT-116 colon it was 2.48 µM; with ACHN renal it was 8.84 µM. Besides, the TGI in the assay with OVCAR-4 ovarian was found to be 16.8 µM; with HCC-2998 colon, 14.3 µM; with OVCAR-3 ovarian, 33.5 µM; in the assay with KM12 colon, 14.2 µM; with SW-620 colon, 16.6 µM; in the assay on HOP-62 NSCLC, 17.6 µM. The TGI with M14 melanoma was 15.4 µM; with HCT-116 colon, 12.4 µM; in the assay on ACHN renal, greater than 100 µM.
